Values of other authors in US20160355464A1, “FUMARATE COMPOUNDS, PHARMACEUTICAL COMPOSITIONS THEREOF, AND METHODS OF USE” (priority 2015, published 2016).

aqueous solubility: poor aqueous solubility
SMILES: COC(=O)/C=C/C(=O)OC [DMF, dimethylfumarate]
